# Measurements published in US10377753B2, “Substituted 4-azaindoles and their use as GluN2B receptor modulators” (Janssen Pharmaceutica NV, priority 2015, dated 2019).
# Where a name gives a salt, the structure may show the parent alone.
# Molecular target: cloned human NR1/NR2B ion channels (Homo sapiens (Human), UniProt Q05586+Q13224)
# Assay: HNR2BC: effects of test articles on cloned human NR1/NR2B ion channels expressed in mammalian cells (FLIPR calcium flux)
# Format: cell-based
# Conditions: cloned human NR1/NR2B, Table 5
# Summary of the method: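 In a stable Tet-On-induced cell line expressing human GluN1/GluN2B, Calcium 5-loaded cells were preincubated 5 min with compound, then stimulated 5 min with glutamate at ~EC80 plus 10 μM glycine, in pH 7.4 HEPES buffer. FLIPR calcium fluorescence was normalized to control wells.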
# Sequence of cloned human NR1/NR2B ion channels (Q13224 27-1484, other chains not shown): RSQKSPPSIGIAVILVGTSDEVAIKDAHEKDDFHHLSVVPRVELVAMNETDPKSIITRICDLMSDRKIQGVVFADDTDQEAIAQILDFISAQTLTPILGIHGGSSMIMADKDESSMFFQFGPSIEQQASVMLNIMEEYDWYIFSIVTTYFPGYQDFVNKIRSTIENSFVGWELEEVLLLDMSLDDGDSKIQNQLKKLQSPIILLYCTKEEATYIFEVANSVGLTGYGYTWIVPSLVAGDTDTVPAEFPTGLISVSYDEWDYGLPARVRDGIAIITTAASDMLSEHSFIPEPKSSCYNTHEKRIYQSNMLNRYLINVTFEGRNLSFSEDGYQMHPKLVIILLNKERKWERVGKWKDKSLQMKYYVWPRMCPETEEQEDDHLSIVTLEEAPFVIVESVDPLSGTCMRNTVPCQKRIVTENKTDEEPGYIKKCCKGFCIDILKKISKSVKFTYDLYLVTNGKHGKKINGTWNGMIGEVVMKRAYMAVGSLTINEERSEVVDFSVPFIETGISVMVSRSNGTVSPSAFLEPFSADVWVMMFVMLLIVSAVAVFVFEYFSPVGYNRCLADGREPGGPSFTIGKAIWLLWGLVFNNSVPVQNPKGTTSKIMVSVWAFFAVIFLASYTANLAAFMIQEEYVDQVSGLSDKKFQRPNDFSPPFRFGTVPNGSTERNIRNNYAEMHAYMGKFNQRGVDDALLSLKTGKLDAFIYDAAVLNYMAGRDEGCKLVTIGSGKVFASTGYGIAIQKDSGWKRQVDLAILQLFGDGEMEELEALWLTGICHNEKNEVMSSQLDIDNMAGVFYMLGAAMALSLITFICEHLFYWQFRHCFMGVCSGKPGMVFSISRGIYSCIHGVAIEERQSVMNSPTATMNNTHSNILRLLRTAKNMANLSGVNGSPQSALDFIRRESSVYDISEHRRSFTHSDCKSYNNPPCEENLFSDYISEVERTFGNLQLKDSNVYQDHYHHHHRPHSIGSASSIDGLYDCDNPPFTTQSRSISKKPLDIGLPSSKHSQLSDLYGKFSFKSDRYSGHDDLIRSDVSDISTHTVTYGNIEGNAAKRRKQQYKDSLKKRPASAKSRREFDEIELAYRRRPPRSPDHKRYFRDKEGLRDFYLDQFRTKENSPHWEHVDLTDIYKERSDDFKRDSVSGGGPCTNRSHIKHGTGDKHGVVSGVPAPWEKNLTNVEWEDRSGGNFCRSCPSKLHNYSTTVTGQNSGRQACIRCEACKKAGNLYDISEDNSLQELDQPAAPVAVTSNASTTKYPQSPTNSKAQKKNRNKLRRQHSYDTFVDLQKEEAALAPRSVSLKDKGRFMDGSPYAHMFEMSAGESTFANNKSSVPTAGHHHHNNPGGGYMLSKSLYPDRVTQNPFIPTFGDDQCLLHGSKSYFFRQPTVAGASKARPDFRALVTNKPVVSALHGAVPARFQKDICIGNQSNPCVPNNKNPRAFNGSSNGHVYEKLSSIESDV
row,IC50,SMILES
1,200 nM,"O=C(Cn1ccc2ncc(-c3ccc(F)cc3)cc21)c1ccccc1 [Example 226, 2-[6-(4-Fluorophenyl)pyrrolo[3,2-b]pyridin-1-yl]-1-phenyl-ethanone]"
2,794 nM,"O=C(Cn1ccc2ncc(-c3ccc(F)cc3)cc21)c1ccc(F)cc1 [Example 227, 1-(4-Fluorophenyl)-2-[6-(4-fluorophenyl)pyrrolo[3,2-b]pyridin-1-yl]ethanone]"
3,501 nM,"CC(C)NC(=O)Cn1ccc2ncc(-c3ccc(F)cc3)cc21 [Example 229, 2-[6-(4-Fluorophenyl)pyrrolo[3,2-b]pyridin-1-yl]-N-isopropyl-acetamide]"
4,5010 nM,"CCCNC(=O)Cn1ccc2ncc(-c3ccc(F)cc3)cc21 [Example 230, 2-[6-(4-Fluorophenyl)pyrrolo[3,2-b]pyridin-1-yl]-N-propyl-acetamide]"
5,10000 nM,"CC1(NC(=O)Cn2ccc3ncc(-c4ccc(F)cc4)cc32)CC1 [Example 232, 2-[6-(4-Fluorophenyl)pyrrolo[3,2-b]pyridin-1-yl]-N-(1-methylcyclopropyl)acetamide]"
6,15800 nM,"O=C(Cn1ccc2ncc(-c3ccc(F)cc3)cc21)NCCF [Example 233, N-(2-Fluoroethyl)-2-[6-(4-fluorophenyl)pyrrolo[3,2-b]pyridin-1-yl]acetamide]"
7,2510 nM,"CC(C)CNC(=O)Cn1ccc2ncc(-c3ccc(F)cc3)cc21 [Example 234, 2-[6-(4-Fluorophenyl)pyrrolo[3,2-b]pyridin-1-yl]-N-isobutyl-acetamide]"
8,200 nM,"Cc1cc(-c2cnc3ccn(Cc4cnn(C)c4)c3c2)ccc1F [Example 236, 6-(4-Fluoro-3-methyl-phenyl)-1-[(1-methylpyrazol-4-yl)methyl]pyrrolo[3,2-b]pyridine]"
9,2000 nM,"O=C(Cn1ccc2ncc(-c3ccc(F)cc3)cc21)NCC1CC1 [Example 237, N-(Cyclopropylmethyl)-2-[6-(4-fluorophenyl)pyrrolo[3,2-b]pyridin-1-yl]acetamide]"
10,3160 nM,"Cc1cc(-c2cnc3ccn(Cc4cn(C)nn4)c3c2)ccc1F [Example 238, 6-(4-Fluoro-3-methyl-phenyl)-1-[(1-methyltriazol-4-yl)methyl]pyrrolo[3,2-b]pyridine]"
11,158 nM,"Cc1noc(Cn2cc(Cl)c3ncc(-c4ccc(F)c(C)c4)cc32)n1 [Example 239, 5-[[3-Chloro-6-(4-fluoro-3-methyl-phenyl)pyrrolo[3,2-b]pyridin-1-yl]methyl]-3-methyl-1,2,4-oxadiazole]"
12,501 nM,"Cc1cc(-c2cnc3c(Cl)cn(Cc4cnn(C)c4)c3c2)ccc1F [Example 240, 3-Chloro-6-(4-fluoro-3-methyl-phenyl)-1-[(1-methylpyrazol-4-yl)methyl]pyrrolo[3,2-b]pyridine]"
13,5010 nM,"Cc1cc(-c2cnc3c(Cl)cn(CC(=O)C4CCC4)c3c2)ccc1F [Example 241, 2-[3-Chloro-6-(4-fluoro-3-methyl-phenyl)pyrrolo[3,2-b]pyridin-1-yl]-1-cyclobutyl-ethanone]"
14,794 nM,"Cc1cc(-c2cnc3ccn(CC(=O)C4CCC4)c3c2)ccc1F [Example 242, 1-Cyclobutyl-2-[6-(4-fluoro-3-methyl-phenyl)pyrrolo[3,2-b]pyridin-1-yl]ethanone]"
15,100 nM,"O=C(Cn1cc(Cl)c2ncc(-c3cncc(C(F)(F)F)c3)cc21)N1CCC1 [Example 243, 1-(Azetidin-1-yl)-2-[3-chloro-6-[5-(trifluoromethyl)-3-pyridyl]pyrrolo[3,2-b]pyridin-1-yl]ethanone trifluoroacetate salt]"
16,631 nM,"O=C(Cn1cc(Cl)c2ncc(-c3cncc(C(F)(F)F)c3)cc21)NC1CC1 [Example 244, 2-[3-Chloro-6-[5-(trifluoromethyl)-3-pyridyl]pyrrolo[3,2-b]pyridin-1-yl]-N-cyclopropyl-acetamide trifluoroacetate salt]"
17,398 nM,"O=C(Cn1cc(Cl)c2ncc(-c3cccc(C(F)(F)F)n3)cc21)N1CCC1 [Example 245, 1-(Azetidin-1-yl)-2-[3-chloro-6-[6-(trifluoromethyl)-2-pyridyl]pyrrolo[3,2-b]pyridin-1-yl]ethanone]"
